From patent publication US7790884B2, “Acylaminopiperidine compound” (Astellas Pharma Inc., priority 2006, dated 2010)
Where a name gives a salt, the structure may show the parent alone.

The compounds below were run against T1, human CCR4 (Homo sapiens, UniProt P51679) (assay: [35S]GTPγS binding test via CCR4 (human MDC-stimulated, human CCR4 expressing cell line membrane fraction)). Conditions: membrane fraction of human CCR4 expressing B300-16 cells, room temperature 1 hour 30 minutes, read-out: inhibitory activity value (IC50).
T1 construct: expressed in transfected cells; membrane fraction used
T1 sequence (P51679 1-360): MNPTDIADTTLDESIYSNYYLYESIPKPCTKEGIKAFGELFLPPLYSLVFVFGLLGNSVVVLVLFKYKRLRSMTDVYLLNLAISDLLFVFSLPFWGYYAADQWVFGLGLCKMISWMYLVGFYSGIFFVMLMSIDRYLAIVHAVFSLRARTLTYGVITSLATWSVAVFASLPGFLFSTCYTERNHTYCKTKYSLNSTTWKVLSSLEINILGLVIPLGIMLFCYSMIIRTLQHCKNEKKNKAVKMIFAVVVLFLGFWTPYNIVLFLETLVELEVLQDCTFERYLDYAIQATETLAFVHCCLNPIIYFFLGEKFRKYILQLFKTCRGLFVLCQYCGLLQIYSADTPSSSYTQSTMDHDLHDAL
Type: biochemical
Procedure: Action for [^35S]GTPγS Binding Test Via CCR4 (1) Preparation of Human CCR4 Expressing Cell Line A vector (contains a neomycin-resistance gene) in which human CCR4 gene was inserted into downstream of the EF-1α promoter was prepared and transfected into a mouse pre B cell line B300-16 cells by electroporation. These cells were cultured using a G-418-supplemented medium, and a single cell line capable of producing human CCR4 constantly and stably was obtained by the limiting dilution method. (2) Preparation of Human CCR4 Expressing Cell Line Membrane Fraction The human CCR4 expressing cells were recovered, washed with PBS and then suspended in a lysis buffer (10 mM HEPES pH 7.5, 2 mM EDTA, proteinase inhibitor). After allowing the suspension to stand on ice for 15 minutes, the cells were disintegrated using a homogenizer and centrifuged (2000 rpm, 10 min, 4° C.). The supernatant was further subjected to ultracentrifugation (22 K, 30 min, 4° C.), and then the pellet was suspended in PBS and used in the subsequent test. (3) GTPγS Binding Test In a reaction mixture liquid containing 20 mM of HEPES pH 7.05, 100 mM of NaCl, 5 mM of MgCl2, 2 μM of GDP, human MDC, […] of [^35S]GTPγS, 1 mg of wheat germ agglutinin SPA beads and 1 μg of the human CCR4 expressing cell line membrane fraction, respective concentration of the test compound was allowed to undergo the reaction at room temperature for 1 hour and 30 minutes, and the radioactivity was measured.

SMILES	IC50 [nM]
CCN(C(=O)[C@H]1CCCN1C)C1CCN(c2nc(Nc3ccc(Cl)cc3F)c3cc(F)ccc3n2)CC1 [Example 50]	≤ 100
CN(C(=O)[C@@H]1CCCN1C)C1CCN(c2nc(Nc3ccc(Cl)cc3F)c3cnn(CC(F)(F)F)c3n2)CC1 [Example 103]	≤ 100
CN(C(=O)[C@H]1CCCN1)C1CCN(c2nc(Nc3ccc(Cl)cc3F)c3cnn(C)c3n2)CC1 [Example 95]	≤ 100
CN(C(=O)[C@H]1CCCN1)C1CCN(c2nc(NCc3ccc(Cl)cc3F)c3cnn(CC(F)(F)F)c3n2)CC1 [Example 106]	≤ 100
CN(C(=O)[C@@H]1CCCN1)C1CCN(c2nc(Nc3ccc(Cl)cc3F)c3cnn(CC(F)(F)F)c3n2)CC1 [Example 101]	≤ 100
CN(C(=O)[C@H]1CCCN1C)C1CCN(c2nc(Nc3ccc(Cl)cc3)c3cc(Br)ccc3n2)CC1 [Example 47]	≤ 100
CCN(C(=O)[C@H]1CCCN1)C1CCN(c2nc(Nc3ccc(Cl)cc3)c3cc(Br)ccc3n2)CC1 [Example 45]	≤ 100
COc1cc2nc(N3CCC(N(C)C(=O)[C@@H]4CCCN4C)CC3)nc(Nc3ccc(Cl)cc3F)c2cc1F [Example 6]	≤ 100
COc1cc2nc(N3CCC(N(C)C(=O)[C@H]4CCCN4CC(O)CO)CC3)nc(Nc3ccc(Cl)cc3F)c2cc1F (some centres unmarked) [Example 80]	≤ 100
CN(C(=O)[C@@H]1CCCN1C)C1CCN(c2nc(Nc3ccc(Cl)cc3F)c3cc(F)ccc3n2)CC1 [Example 31]	≤ 100
CN(C(=O)[C@H]1CCCN1C)C1CCN(c2nc(Nc3ccc(Cl)cc3F)c3cc(Br)ccc3n2)CC1 [Example 22]	≤ 100
CCN(C(=O)[C@@H]1CCCN1C)C1CCN(c2nc(Nc3ccc(Cl)cc3F)c3cc(Br)ccc3n2)CC1 [Example 57]	≤ 100
CCN(C(=O)[C@@H]1CCCN1)C1CCN(c2nc(Nc3ccc(Cl)cc3F)c3ccc(C#N)cc3n2)CC1 [Example 69]	≤ 100
CCn1ncc2c(Nc3ccc(Cl)cc3F)nc(N3CCC(N(C)C(=O)[C@H]4CCCN4C)CC3)nc21 [Example 100]	≤ 100
CN(C(=O)[C@@H]1CCCN1)C1CCN(c2nc(Nc3ccc(Cl)cc3F)c3cc(F)ccc3n2)CC1 [Example 29]	≤ 100
CN(C(=O)[C@H]1CCCN1)C1CCN(c2nc(Nc3ccc(Cl)cc3)c3cc(Br)ccc3n2)CC1 [Example 44]	≤ 100
COc1cc2nc(N3CCC(N(C(=O)[C@H]4CCCN4)C4CCC4)CC3)nc(Nc3ccc(Cl)cc3F)c2cc1OC [Example 17]	≤ 100
CCN(C(=O)[C@H]1CCCN1)C1CCN(c2nc(Nc3ccc(Cl)cc3)c3cc(F)ccc3n2)CC1 [Example 40]	≤ 100
CN(C(=O)[C@@H]1CCCN1C)C1CCN(c2nc(Nc3ccc(Cl)cc3)c3cc(F)ccc3n2)CC1 [Example 41]	≤ 100
COc1cc2nc(N3CCC(N(C)C(=O)[C@H]4CCCN4C)CC3)nc(Nc3ccc(Cl)cc3F)c2cc1OC [Example 19]	≤ 100

SMILES	IC50 [nM]
CN(C(=O)[C@H]1CCCN1C)C1CCN(c2nc(Nc3ccc(Cl)cc3F)c3cc(F)ccc3n2)CC1 [Example 32]	≤ 100
CN(C(=O)[C@H]1CCCN1)C1CCN(c2nc(Nc3ccc(Cl)cc3)c3cc(F)ccc3n2)CC1 [Example 39]	≤ 100
CN(C(=O)[C@@H]1CCCN1)C1CCN(c2nc(Nc3ccc(Cl)cc3)c3cc(Br)ccc3n2)CC1 [Example 43]	≤ 100
CCN(C(=O)[C@@H]1CCCN1)C1CCN(c2nc(Nc3ccc(Cl)cc3F)c3cc(F)c(OC)cc3n2)CC1 [Example 63]	≤ 100
CCN(C(=O)[C@@H]1CCCN1)C1CCN(c2nc(Nc3ccc(Cl)cc3)c3cc(Br)ccc3n2)CC1 [Example 64]	≤ 100
COc1cc2nc(N3CCC(N(C)C(=O)[C@H]4CCCCN4)CC3)nc(Nc3ccc(Cl)cc3F)c2cc1OC [Example 87]	≤ 100
CCN(C(=O)[C@H]1CCCN1)C1CCN(c2nc(Nc3ccc(Cl)cc3F)c3cc(F)c(OC)cc3n2)CC1 [Example 65]	≤ 100
COc1cc2nc(N3CCC(N(C)C(=O)[C@H]4CCCN4C)CC3)nc(Nc3ccc(Cl)cc3F)c2cc1F [Example 66]	≤ 100
COc1cc2nc(N3CCC(N(C)C(=O)[C@@H]4CCCN4)CC3)nc(Nc3ccc(Cl)cc3F)c2cc1OC [Example 2, N-(1-{4-[(4-chloro-2-fluorophenyl)amino]-6,7-dimethoxyquinazolin-2-yl}piperidin-4-yl)-N-methyl-L-prolinamide dihydrochloride]	≤ 100
COc1cc2nc(N3CCC(N(C)C(=O)[C@H]4CCCN4)CC3)nc(Nc3ccc(Cl)cc3F)c2cc1F [Example 62]	≤ 100
CCN(C(=O)[C@H]1CCCN1)C1CCN(c2nc(Nc3ccc(Cl)cc3F)c3cc(Br)ccc3n2)CC1 [Example 56]	≤ 100
CN(C(=O)[C@@H]1CCCN1C)C1CCN(c2nc(Nc3ccc(Cl)cc3)c3cc(Br)ccc3n2)CC1 [Example 46]	≤ 100
CN(C(=O)[C@H]1CCCN1)C1CCN(c2nc(Nc3ccc(Cl)cc3F)c3ccc(C#N)cc3n2)CC1 [Example 68]	≤ 100
CN(C(=O)[C@H]1CCCN1)C1CCN(c2nc(Nc3ccc(Cl)cc3F)c3cc(F)ccc3n2)CC1 [Example 30]	≤ 100
CCN(C(=O)[C@@H]1CCCN1)C1CCN(c2nc(Nc3ccc(Cl)cc3F)c3cc(Br)ccc3n2)CC1 [Example 55]	≤ 100
COc1cc2nc(N3CCC(N(C)C(=O)[C@H]4CCCN4)CC3)nc(Nc3ncc(Cl)cc3Cl)c2cc1F [Example 75]	≤ 100
CN(C(=O)[C@@H]1CCCN1C)C1CCN(c2nc(Nc3ccc(Cl)cc3F)c3cc(Br)ccc3n2)CC1 [Example 7]	≤ 100
CCn1ncc2c(Nc3ccc(Cl)cc3F)nc(N3CCC(N(C)C(=O)[C@H]4CCCN4)CC3)nc21 [Example 99]	≤ 100
COc1cc2c(Nc3ccc(Cl)cc3F)nc(N3CCC(N(C)C(=O)[C@H]4CCCN4)CC3)nc2cc1F [Example 35]	≤ 100
CCN(C(=O)[C@@H]1CCCN1)C1CCN(c2nc(Nc3ccc(Cl)cc3)c3cc(F)ccc3n2)CC1 [Example 53]	≤ 100

SMILES	IC50 [nM]
COc1cc2nc(N3CCC(N(C(=O)[C@H]4CCCN4C)C4CC4)CC3)nc(Nc3ccc(Cl)cc3F)c2cc1OC [Example 21]	≤ 100
COc1cc2nc(N3CCC(N(C)C(=O)[C@H]4CCCN4)CC3)nc(NCc3ccc(Cl)cc3F)c2cc1F [Example 79]	≤ 100
COc1cc2c(Nc3ccc(Cl)cc3F)nc(N3CCC(N(C)C(=O)[C@H]4CCCN4C)CC3)nc2cc1F [Example 37]	≤ 100
CN(C(=O)[C@H]1CCCN1C)C1CCN(c2nc(Nc3ccc(Cl)cc3F)c3ccc(C#N)cc3n2)CC1 [Example 70]	≤ 100
COc1cc2nc(N3CCC(N(C)C(=O)[C@H]4CCCN4)CC3)nc(Nc3ccc(Cl)cn3)c2cc1F [Example 74]	≤ 100
CN(C(=O)[C@@H]1CCCN1)C1CCN(c2nc(Nc3ccc(Cl)cc3)c3cc(F)ccc3n2)CC1 [Example 38]	≤ 100
COc1cc2nc(N3CCC(N(C)C(=O)[C@H]4CCCN4)CC3)nc(Nc3ccc(Cl)cc3F)c2cc1OC [Example 10]	≤ 100
CCN(C(=O)[C@H]1CCCN1)C1CCN(c2nc(Nc3ccc(Cl)cc3F)c3ccc(C#N)cc3n2)CC1 [Example 28]	≤ 100
CCN(C(=O)[C@H]1CCCN1C)C1CCN(c2nc(Nc3ccc(Cl)cc3)c3cc(Br)ccc3n2)CC1 [Example 60]	≤ 100
CN(C(=O)[C@H]1CCCN1)C1CCN(c2nc(Nc3ccc(Cl)cc3F)c3cc(Br)ccc3n2)CC1 [Example 27]	≤ 100
CN(C(=O)[C@@H]1CCCN1C)C1CCN(c2nc(Nc3ccc(Cl)cc3F)c3ccc(C#N)cc3n2)CC1 [Example 15]	≤ 100
CCN(C(=O)[C@H]1CCCN1C)C1CCN(c2nc(Nc3ccc(Cl)cc3F)c3ccc(C#N)cc3n2)CC1 [Example 24]	≤ 100
CN(C(=O)[C@@H]1CCCN1)C1CCN(c2nc(Nc3ccc(Cl)cc3F)c3cc(Br)ccc3n2)CC1 [Example 54]	≤ 100
COc1cc2nc(N3CCC(N(C)C(=O)[C@H]4CCCN4)CC3)nc(Nc3cc(F)c(F)cc3F)c2cc1F [Example 72]	≤ 100
CCN(C(=O)[C@H]1CCCN1)C1CCN(c2nc(Nc3ccc(Cl)cc3F)c3cc(F)ccc3n2)CC1 [Example 33]	≤ 100
COc1cc2nc(N3CCC(N(C)C(=O)[C@H]4CCCN4)CC3)nc(Nc3c(F)cc(Cl)cc3F)c2cc1F [Example 78]	≤ 100
CCn1ncc2c(NCc3ccc(Cl)cc3F)nc(N3CCC(N(C)C(=O)[C@H]4CCCN4)CC3)nc21 [Example 105]	≤ 100
COc1cc2nc(N3CCC(N(C(=O)[C@@H]4CCCN4C)C4CC4)CC3)nc(Nc3ccc(Cl)cc3F)c2cc1OC [Example 20]	≤ 100
CN(C(=O)[C@@H]1CCCN1)C1CCN(c2nc(Nc3ccc(Cl)cc3F)c3ccc(C#N)cc3n2)CC1 [Example 5]	≤ 100
